Structures are written as SMILES.

The test system of data set [1] is rats with ISO+5-FU cardiomyopathy. Description: echocardiography after tail vein cell injection in ISO+5-FU cardiomyopathy. Format: in vivo, rat. The note with it: (84 d) 3 months.
Data set [2] deals with adult myocytes isolated from Tg^c-kit/GFP mice. Description: ISO in vitro on adult myocytes isolated from Tg^c-kit/GFP mice. It is filed as cell-based, mouse. The note with it: ISO 10 nM, cultured for 48 hrs.
The subject of data set [3] is adult rat myocardium. Description: diffuse myocardial damage by single ISO injection in rats: eCSC activation. Format: in vivo. The text has this: Adult c-kit^poseCSCs are scattered throughout the myocardium with higher density within the atria and the ventricular apex (10). When the apical myocardium is severely injured by catecholamine overdrives, induced through Isoproterenol bolus injection, c-kit^poseCSCs are rapidly activated and respond to damage by increasing their number (16) and differentiate into cardiomyocyte lineage (Unpublished data). The same growth response by these cells is detectable in the ischemic myocardium (17) as well as in hearts with pathologic or physiological overload (18,19). During embryonic life, a progressive process of cell specification or commitment, precisely regulated in space and time, determine cardiac muscle cell creation from cardiac progenitor cells (20). In the latter phenomenon, “cell-autonomous” decisions (intrinsic to a cell) are accompanied by “cell-non-autonomous” events, which entail extracellular cardiomyogenic instructive molecules known as morphogens or cardiopoietic growth factors (cGFs) (8,9). […] The mRNA levels for different cGFs and their detection by immunohistochemistry correlated with the levels of the corresponding protein (FIG. 4).
Diffuse myocardial damage was induced by a single injection (s.c.) of isoproterenol (ISO) to rats (5 mg kg^−1) or mice (200 mg kg^−1). […] Mer-CreMer mice were kindly provided by Drs. Tammie Bishop and Ludwig Thierfelder (see below). ZEG and RYP mice were purchased at Jackson Laboratory.
To follow c-kit^poseCSC physiological response to cardiac injury, we induced severe diffuse myocardial damage in adult rats with a single high dose of isoproterenol (ISO) (Ellison et al., 2007b). New cell formation was monitored with BrdU labeling in vivo (Waring et al., 2012). In the presence of a patent coronary circulation, ISO produces a Takotsubo-like cardiomyopathy (Akashi et al., 2008) with both diffuse sub-endocardial and apical CM death. This acute insult kills 8-10% of the LV CMs and results in overt acute heart failure (Ellison et al., 2007b). […] While in the normal myocardium (CTRL) most c-kit^poseCSCs are quiescent (>90% BrdU^neg and Ki67^neg), after ISO damage a high fraction enters the cell cycle (FIG. 14A-C and FIG. 21). At day 3, ˜88% are BrdU^pos (FIG. 14C), leading to an ˜8-fold increase in eCSC number, which decreases thereafter but remains above CTRL for up to 28 days (FIG. 14A).
The expansion of the eCSC pool in response to CM loss by ISO damage was followed by their commitment to myocardial cell lineages. […]

Data set [4] has as its system adult rat myocardium. The note with it: single high dose of ISO; cited from earlier work.

As for `CC(C)NCC(O)c1ccc(O)c(O)c1` (centres unmarked) [ISO, isoproterenol], in data set [1], the EF is 88.6 ± 2.56%, the FS was 51.7 ± 3.7%, the LVIDd worked out at 5.25 ± 0.42 mm and the LVIDs is 2.53 ± 0.31 mm. In data set [2], the “ANP expression (fetal myocyte gene program)” value was “increased ANP expression” and the “c-kit/GFP transcription in adult myocytes” value was “unable to activate”. For the same molecule, in the data set on adult rat myocardium [3] (after ISO injection), the “expression of cardiopoietic growth factors in the myocardium” value is reported as “significantly increased expression”. In addition, the “increase of c-kit^posNkx2.5^posGATA4^pos cells over CTRL” value in the data set on adult rat myocardium [3] (by day 3 after ISO) is approximately 4 fold. Besides, in the data set with adult rat myocardium [3] (day 3 after ISO), the “BrdU^pos c-kit^pos eCSCs” value is reported as approximately 88% and the “increase in eCSC number” value is given as approximately 8 fold. In addition, in the data set with adult rat myocardium [4], the “LV CMs killed” value was 8-10%.

Values taken from patent US10526581B2, “Modulation of cardiac stem-progenitor cell differentiation, assays and uses thereof” (priority 2013, dated 2020).
